Where two headings read alike, the source gives them in different places. A value given as a limit tells only on which side of the number the result lay.

We go through 25 compounds from patent US20160039767A1, “PYRAZOLE DERIVATIVES AS PRMT1 INHIBITORS AND USES THEREOF” (EPIZYME, INC., priority 2013, published 2016).

Assay [1] relates to RKO cells. Kind of assay: RKO Methylation Assay (In Cell Western for mono-methyl arginine and DNA content). It counts as cell-based. As to conditions: Homo sapiens. The source says:
RKO adherent cells were purchased from ATCC (American Type Culture Collection), Manassas, Va., USA. DMEM/Glutamax medium, penicillin-streptomycin, heat inactivated fetal bovine serum, 0.05% trypsin and D-PBS were purchased from Life Technologies, Grand Island, N.Y., USA. Odyssey blocking buffer, 800CW goat anti-rabbit IgG (H+L) antibody, and Licor Odyssey infrared scanner were purchased from Licor Biosciences, Lincoln, Nebr., USA. Mono-methyl arginine antibody was purchased from Cell Signaling Technology, Danvers, Mass., USA. Methanol was purchased from VWR, Franklin, Mass., USA. 10% Tween 20 was purchased from KPL, Inc., Gaithersburg, Md., USA. DRAQ5 was purchased from Biostatus Limited, Leicestershire, UK.
RKO adherent cells were maintained in growth medium (DMEM/Glutamax medium supplemented with 10% v/v heat inactivated fetal bovine serum and 100 units/mL penicillin-streptomycin) and cultured at 37° C. under 5% CO2.
Cell Treatment, in Cell Western (ICW) for Detection of Mono-Methyl Arginine and DNA Content.
Compound (100 nL) from a 96-well source plate was added directly to 384 well cell plate. Plates were incubated at 37° C., 5% CO2 for 72 hours. After three days of incubation, plates were brought to room temperature outside of the incubator for ten minutes and blotted on paper towels to remove cell media. 50 μL of ice cold 100% methanol was added directly to each well and incubated for 30 min at room temperature. After 30 min, plates were transferred to a Biotek EL406 plate washer and washed 2 times with 100 μL per well of wash buffer (1×PBS). Next 60 μL per well of Odyssey blocking buffer (Odyssey Buffer with 0.1% Tween 20 (v/v)) were added to each plate and incubated 1 hour at room temperature. Blocking buffer was removed and 20 μL per well of primary antibody was added (mono-methyl arginine diluted 1:200 in Odyssey buffer with 0.1% Tween 20 (v/v)) and plates were incubated overnight (16 hours) at 4° C. Plates were washed 5 times with 100 µL per well of wash buffer. Next 20 μL per well of secondary antibody was added (1:200 800CW goat anti-rabbit IgG (H+L) antibody, 1:1000 DRAQ5 (Biostatus limited) in Odyssey buffer with 0.1% Tween 20 (v/v)) and incubated for 1 hour at room temperature. The plates were washed 5 times with 100 μL per well wash buffer then 2 times with 100 μL per well of water. Plates were allowed to dry at room temperature then imaged on the Licor Odyssey machine which measures integrated intensity at 700 nm and 800 nm wavelengths. Both 700 and 800 channels were scanned.
First, the ratio for each well was determined by:
Each plate included fourteen control wells of DMSO only treatment (minimum activation) as well as fourteen control wells for maximum activation treated with 20 μM of a reference compound. The average of the ratio values for each control type was calculated and used to determine the percent activation for each test well in the plate. Reference compound was serially diluted three-fold in DMSO for a total of nine test concentrations, beginning at 20 μM. Percent activation was determined and EC30 curves were generated using triplicate wells per concentration of compound.

Assay [2] has as its target T1, PRMT1 (Homo sapiens, UniProt Q99873).
T1 construct: GST-tagged PRMT1; made in house; host or cells: High Five insect cells (baculovirus, pFastBacI)
Kind of assay: PRMT1 Biochemical Assay (3H-SAM Flashplate, histone H4 peptide substrate). The following applies: Biochemical IC50 (Numerical, μM) PRMT1, single experiment or average of multiple experiments, Table 2a. The source says: S-adenosylmethionine (SAM), S-adenosylhomocysteine (SAH), bicine, Tween20, dimethylsulfoxide (DMSO), bovine skin gelatin (BSG), and Tris(2-carboxyethyl)phosphine hydrochloride solution (TCEP) were purchased from Sigma-Aldrich at the highest level of purity possible. ^3H-SAM was purchase from American Radiolabeled Chemicals with a specific activity of 80 Ci/mmol. 384-well streptavidin Flashplates were purchased from PerkinElmer.
Recombinant baculovirus were generated according to Bac-to-Bac kit instructions (Life Technologies). Protein over-expression was accomplished by infecting exponentially growing High Five insect cell culture at 1.5×10^6 cell/ml with 1:100 ratio of virus. Infections were carried out at 27° C. for 48 hours, harvested by centrifugation, and stored at −80° C. for purification.
GST-tagged PRMT1 was eluted with 50 mM Tris, 2 mM glutathione, pH 7.8, dialysed in buffer A and concentrated to 1 mg/mL.
General Procedure for PRMT1 Enzyme Assays on Peptide Substrates.
The assays were all performed in a buffer consisting of 20 mM Bicine (pH=7.6), 1 mM TCEP, 0.005% BSG, and 0.002% Tween 20, prepared on the day of use. […] DMSO (1 ul) was added to Columns 11, 12, 23, 24, rows A-H for the maximum signal control and 1 ul of SAH, a known product and inhibitor of PRMT1, was added to columns 11, 12, 23, 24, rows I-P for the minimum signal control. A cocktail (40 ul) containing the PRMT1 enzyme was added by Multidrop Combi (Thermo-Fisher). The compounds were allowed to incubate with PRMT1 for 30 min at room temperature, then a cocktail (10 ul) containing SAM and peptide was added to initiate the reaction (final volume=51 ul). […] The assays were stopped by the addition of non-radiolabeled SAM (10 ul) to a final concentration of 300 uM, which dilutes the ^3H-SAM to a level where its incorporation into the peptide substrate is no longer detectable. […] The plates were then read in a PerkinElmer TopCount plate reader to measure the quantity of ^3H-labeled peptide bound to the Flashplate surface, measured as disintegrations per minute (dpm) or alternatively, referred to as counts per minute (cpm).
Where dpm=disintegrations per minute, cmpd=signal in assay well, and min and max are the respective minimum and maximum signal controls.
Where top and bottom are the normally allowed to float, but may be fixed at 100 or 0 respectively in a 3-parameter fit. The Hill Coefficient normally allowed to float but may also be fixed at 1 in a 3-parameter fit. Y is the % inhibition and X is the compound concentration.

Setting [3] is: RKO cells, 72 hours, mono-methyl arginine, class symbols, Table 3, read-out: In Cell Western data EC30.
Where [4] appears, read: RKO cells, 72 hours, mono-methyl arginine, single experiment or average of multiple experiments, Table 3a, read-out: In Cell Western data (Numerical, μM) EC30.
Where [5] appears, read: RKO, 72 h, read-out: In Cell Western data (Numerical, μM) EC30.
Where [6] appears, read: RKO, 72 h, read-out: In Cell Western data EC30.

T1 sequence (Q99873 with tags, fused parts or gaps): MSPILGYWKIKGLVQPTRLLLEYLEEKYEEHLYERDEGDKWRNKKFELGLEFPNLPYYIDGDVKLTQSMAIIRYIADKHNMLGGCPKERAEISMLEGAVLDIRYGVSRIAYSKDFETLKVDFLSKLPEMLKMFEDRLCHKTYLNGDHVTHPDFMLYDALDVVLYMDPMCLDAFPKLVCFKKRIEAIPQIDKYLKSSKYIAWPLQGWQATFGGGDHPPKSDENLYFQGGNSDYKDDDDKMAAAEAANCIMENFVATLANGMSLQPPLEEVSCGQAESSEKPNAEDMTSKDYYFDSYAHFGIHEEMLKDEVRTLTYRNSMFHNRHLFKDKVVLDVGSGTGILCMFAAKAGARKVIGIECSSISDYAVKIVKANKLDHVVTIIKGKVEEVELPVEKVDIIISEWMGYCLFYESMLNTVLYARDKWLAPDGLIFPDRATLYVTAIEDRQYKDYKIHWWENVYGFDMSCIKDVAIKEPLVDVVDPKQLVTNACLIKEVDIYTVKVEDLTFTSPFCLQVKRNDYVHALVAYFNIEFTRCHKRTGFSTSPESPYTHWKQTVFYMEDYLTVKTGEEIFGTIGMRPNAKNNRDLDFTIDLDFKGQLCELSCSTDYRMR

Turning to `CNCCN(C)Cc1c[nH]nc1-c1cc(OCCc2ccccc2OC)cc(C(F)(F)F)c1` [Compound 50], the EC30 in assay [1] (setting [3]) was 3.01 to 12 µM; in assay [1] (setting [4]), 4.37 µM. Also, the IC50 in assay [2] was determined as 0.0138 µM.
With `CNCCN(C)Cc1c[nH]nc1-c1cc(OCCCC(F)(F)F)cc(C(F)(F)F)c1` [Compound 48], the figures for the EC30 in assay [1] (setting [3]) and in assay [1] (setting [4]) were 3.01 to 12 µM and 4.2 µM, respectively. This compound also registered an IC50 in assay [2] of 0.0303 µM.
For `CNCCN(C)Cc1n[nH]cc1-c1ccc(OCC(C)C)c(C(F)(F)F)c1` [Compound 18], in that order: < 3 µM, 2.69 µM and 0.00988 µM.
For the compound `CNCCN(C)Cc1c[nH]nc1-c1ccc(OCC(C)C)c(C(F)(F)F)c1` [Compound 10], the concentration for an effect of 30% (EC30) in assay [1] (setting [5]) was 0.537 µM; in assay [1] (setting [6]), < 3 µM. In assay [2], this compound displayed an IC50 of 0.00451 µM.
For `CNCCN(C)Cc1c[nH]nc1-c1cc(Oc2ccncc2)cc(C(F)(F)F)c1` [Compound 38], the values for the EC30 in assay [1] (setting [3]) and in assay [1] (setting [4]) were 3.01 to 12 µM and 8.58 µM, respectively. The IC50 in assay [2] was determined as 0.138 µM.
In the case of `CNCCN(C)Cc1c[nH]nc1-c1cc(C)c(OCC2CCC2)c(C(F)(F)F)c1` [Compound 58], the figures for the EC30 in assay [1] (setting [5]) and in assay [1] (setting [6]) were 0.547 µM and < 3 µM, respectively. Inhibition in assay [2] was half-maximal at 0.00706 µM (IC50).
For the compound `CNCCN(C)Cc1c[nH]nc1-c1cc(Oc2ccccn2)cc(C(F)(F)F)c1` [Compound 52], the EC30 in assay [1] (setting [3]) was 3.01 to 12 µM; in assay [1] (setting [4]) it was 4.44 µM. The compound also registered an IC50 in assay [2] of 0.0359 µM.
Take `CNCCN(C)Cc1c[nH]nc1-c1cc(C)c(OC2CCOCC2)c(C(F)(F)F)c1` [Compound 59]: the EC30 was 1.37 µM in assay [1] (setting [5]) and < 3 µM in assay [1] (setting [6]). The midpoint of inhibition in assay [2], the IC50, lay at 0.0316 µM.
For the compound `CNCCN(C)Cc1c[nH]nc1-c1cc(Cl)c(OCC2CCC2)c(C(F)(F)F)c1` [Compound 35], the EC30 in assay [1] (setting [5]) was 0.694 µM; in assay [1] (setting [6]) it was < 3 µM. Half-maximal inhibition in assay [2] (IC50) was put at 0.00431 µM.
As for `CNCCN(C)Cc1c[nH]nc1-c1cc(Oc2ccccc2)cc(C(F)(F)F)c1` [Compound 36], the EC30 in assay [1] (setting [3]) is < 3 µM; in assay [1] (setting [4]), 2.18 µM. Moreover, in assay [2], the IC50 is 0.0123 µM.
For `CNCCN(C)Cc1c[nH]nc1-c1cc(OCCCC(C)=O)cc(C(F)(F)F)c1` [Compound 49], in that order: 3.01 to 12 µM, 3.36 µM and 0.0366 µM.
Turning to `CC(C)Oc1ccc(-c2c[nH]nc2CN(C)CCN)cc1C(F)(F)F` [Compound 8], the EC30 in assay [1] (setting [3]) is < 3 µM; in assay [1] (setting [4]), 2.69 µM. The compound also registered an IC50 in assay [2] of 0.0165 µM.
On to `CNCCN(C)Cc1n[nH]cc1-c1ccc(OCCOC)c(C(F)(F)F)c1` [Compound 21], for which the results for the EC30 in assay [1] (setting [3]) and in assay [1] (setting [4]) were < 3 µM and 0.812 µM, respectively. For the same compound, in assay [2], the midpoint of inhibition, the IC50, lay at 0.0328 µM.
Regarding `CCCOc1ccc(-c2n[nH]cc2CN(C)CCNC)cc1C(F)(F)F` [Compound 11], the concentration for an effect of 30% (EC30) in assay [1] (setting [5]) was 0.558 µM; in assay [1] (setting [6]), < 3 µM. In assay [2], this compound showed an IC50 of 0.00462 µM.
For `CNCCN(C)Cc1c[nH]nc1-c1cc(OCC2CCOCC2)cc(C(F)(F)F)c1` [Compound 46], in that order: 2.62 µM, < 3 µM and 0.0282 µM.
For `CNCCN(C)Cc1c[nH]nc1-c1cc(C)c(OC2COC2)c(C(F)(F)F)c1` [Compound 66], in that order: 0.724 µM, < 3 µM and 0.00756 µM.
Regarding `CN(CCN)Cc1c[nH]nc1-c1ccc(Oc2ccccc2)c(C(F)(F)F)c1` [Compound 23], the 30% effect concentration (EC30) in assay [1] (setting [5]) is 1.51 µM; in assay [1] (setting [6]), < 3 µM. This compound also gave an IC50 in assay [2] of 0.00301 µM.
For `CNCCN(C)Cc1c[nH]nc1-c1ccc(OCCCOC)c(C(F)(F)F)c1` [Compound 13], in that order: 0.567 µM, < 3 µM and 0.0108 µM.
As to `CNCCN(C)Cc1c[nH]nc1-c1cc(OCCCOC)cc(C(F)(F)F)c1` [Compound 24], the EC30 was 3.01 to 12 µM in assay [1] (setting [3]) and 4.02 µM in assay [1] (setting [4]). Further, in assay [2], the IC50 came out at 0.0229 µM.
In the case of `CNCCN(C)Cc1c[nH]nc1-c1cc(Cl)c(OCC2CC2)c(C(F)(F)F)c1` [Compound 41], the EC30 was 2.39 µM in assay [1] (setting [5]) and < 3 µM in assay [1] (setting [6]). Besides, the IC50 in assay [2] worked out at 0.00636 µM.
As to `CNCCN(C)Cc1c[nH]nc1-c1cc(OCCOC)cc(C(F)(F)F)c1` [Compound 16], the results for the EC30 in assay [1] (setting [3]) and in assay [1] (setting [4]) were < 3 µM and 2.24 µM, respectively. The IC50 in assay [2] turned out to be 0.0204 µM.
The corresponding values for `CNCCN(C)Cc1c[nH]nc1-c1cc(Oc2cccnc2)cc(C(F)(F)F)c1` [Compound 51] are 3.01 to 12 µM, 6.9 µM and 0.0513 µM.
For `CNCCN(C)Cc1c[nH]nc1-c1cc(OCCC(C)C)cc(C(F)(F)F)c1` [Compound 12], in that order: < 3 µM, 1.44 µM and 0.00704 µM.
For `CCCOc1ccc(-c2c[nH]nc2CN(C)CCNC)cc1C(F)(F)F` [Compound 28], in that order: < 3 µM, 1.1 µM and 0.00659 µM.
With `CNCCN(C)Cc1c[nH]nc1-c1cc(OCc2ccccc2)cc(C(F)(F)F)c1` [Compound 37], the EC30 in assay [1] (setting [3]) is 3.01 to 12 µM; in assay [1] (setting [4]) it was 5 µM. This compound registered an IC50 in assay [2] of 0.0185 µM.

The EC30 is the concentration needed for an effect of 30%. One may read the IC50 as the concentration that inhibits the measured activity by half. Higher therefore signals weaker potency in that assay.
